Experimental data published in patent US11111220B2, “Propanamine derivatives for treating pain and pain related conditions” (ESTEVE PHARMACEUTICALS, S.A., priority 2017, dated 2021).
Like-named read-outs stand apart in the source and are kept apart here.

Columns and labels:
[1] = target: Human Norepinephrine Transporter (NET) (Homo sapiens, UniProt P23975); assay: Binding assay to human norepinephrine transporter (NET) ([3H]-Nisoxetin); settings: Table 2 (dual compounds); human NET enriched membranes, 5 nM [3H]-Nisoxetin; read-out: Ki(nM) NET Hum
Experimental: Binding Assay to Human Norepinephrine Transporter (NET).
Human norepinephrine transporter (NET) enriched membranes (5 μg) were incubated with 5 nM of radiolabeled [3H]-Nisoxetin in assay buffer containing 50 mM Tris-HCl, 120 mM NaCl, 5 mM KCl, pH 7.4.
(§1) NSB (non specific binding) was measured by adding 10 μM desipramine. The binding of the test compound was measured in five different concentrations. After 60 min incubation at 4° C., binding reaction was terminated by filtering through Multiscreen GF/C (Millipore) presoaked in 0.5% polyethyleneimine in Vacuum Manifold Station, followed by 3 washes with ice-cold filtration buffer containing 50 mM Tris-HCl, 0.9% NaCl, pH 7.4.
(§2) Filter plates were dried at 60° C. for 1 hour and 30 μl of scintillation cocktail were added to each well before radioactivity reading.
(§3) Readings were performed in a Trilux 1450 Microbeta radioactive counter (Perkin Elmer).

[2] = target: Human α2δ-1 Subunit of Cav2.2 Calcium Channel (Homo sapiens, UniProt P54289); assay: Binding assay to human α2δ-1 subunit of Cav2.2 calcium channel ([3H]-Gabapentin); settings: human α2δ-1 enriched membranes, 15 nM [3H]-Gabapentin, read-out: Ki(nM) alpha2delta Hum
Experimental: Binding Assay to Human α2δ-1 Subunit of Cav2.2 Calcium Channel.
Human α2δ-1 enriched membranes (2.5 μg) were incubated with 15 nM of radiolabeled [3H]-Gabapentin in assay buffer containing Hepes-KOH 10 mM, pH 7.4.
as §1, with “pregabalin.” for “desipramine.”, “27°” for “4°”, “Tris-HCl,” for “Tris-HCl, 0.9% NaCl,”
as §2, §3

Sequence of Human Norepinephrine Transporter (NET) (P23975 whole entry): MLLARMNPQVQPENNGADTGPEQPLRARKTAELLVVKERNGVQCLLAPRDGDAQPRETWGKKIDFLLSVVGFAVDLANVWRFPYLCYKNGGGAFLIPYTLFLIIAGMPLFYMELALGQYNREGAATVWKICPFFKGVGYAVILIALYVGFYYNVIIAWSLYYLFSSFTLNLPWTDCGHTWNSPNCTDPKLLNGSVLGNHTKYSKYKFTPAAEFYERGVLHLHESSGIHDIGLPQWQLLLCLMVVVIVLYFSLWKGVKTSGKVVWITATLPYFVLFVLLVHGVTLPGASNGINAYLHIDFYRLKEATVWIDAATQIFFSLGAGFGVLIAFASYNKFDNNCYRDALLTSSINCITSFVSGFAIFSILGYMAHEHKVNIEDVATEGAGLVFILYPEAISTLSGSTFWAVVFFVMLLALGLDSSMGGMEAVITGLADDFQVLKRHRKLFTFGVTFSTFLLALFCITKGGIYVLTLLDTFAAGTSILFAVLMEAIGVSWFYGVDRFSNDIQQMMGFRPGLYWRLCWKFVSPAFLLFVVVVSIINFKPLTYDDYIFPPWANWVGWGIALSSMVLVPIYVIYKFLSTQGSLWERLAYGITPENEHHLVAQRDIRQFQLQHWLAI
Sequence of Human α2δ-1 Subunit of Cav2.2 Calcium Channel (P54289 25-1103): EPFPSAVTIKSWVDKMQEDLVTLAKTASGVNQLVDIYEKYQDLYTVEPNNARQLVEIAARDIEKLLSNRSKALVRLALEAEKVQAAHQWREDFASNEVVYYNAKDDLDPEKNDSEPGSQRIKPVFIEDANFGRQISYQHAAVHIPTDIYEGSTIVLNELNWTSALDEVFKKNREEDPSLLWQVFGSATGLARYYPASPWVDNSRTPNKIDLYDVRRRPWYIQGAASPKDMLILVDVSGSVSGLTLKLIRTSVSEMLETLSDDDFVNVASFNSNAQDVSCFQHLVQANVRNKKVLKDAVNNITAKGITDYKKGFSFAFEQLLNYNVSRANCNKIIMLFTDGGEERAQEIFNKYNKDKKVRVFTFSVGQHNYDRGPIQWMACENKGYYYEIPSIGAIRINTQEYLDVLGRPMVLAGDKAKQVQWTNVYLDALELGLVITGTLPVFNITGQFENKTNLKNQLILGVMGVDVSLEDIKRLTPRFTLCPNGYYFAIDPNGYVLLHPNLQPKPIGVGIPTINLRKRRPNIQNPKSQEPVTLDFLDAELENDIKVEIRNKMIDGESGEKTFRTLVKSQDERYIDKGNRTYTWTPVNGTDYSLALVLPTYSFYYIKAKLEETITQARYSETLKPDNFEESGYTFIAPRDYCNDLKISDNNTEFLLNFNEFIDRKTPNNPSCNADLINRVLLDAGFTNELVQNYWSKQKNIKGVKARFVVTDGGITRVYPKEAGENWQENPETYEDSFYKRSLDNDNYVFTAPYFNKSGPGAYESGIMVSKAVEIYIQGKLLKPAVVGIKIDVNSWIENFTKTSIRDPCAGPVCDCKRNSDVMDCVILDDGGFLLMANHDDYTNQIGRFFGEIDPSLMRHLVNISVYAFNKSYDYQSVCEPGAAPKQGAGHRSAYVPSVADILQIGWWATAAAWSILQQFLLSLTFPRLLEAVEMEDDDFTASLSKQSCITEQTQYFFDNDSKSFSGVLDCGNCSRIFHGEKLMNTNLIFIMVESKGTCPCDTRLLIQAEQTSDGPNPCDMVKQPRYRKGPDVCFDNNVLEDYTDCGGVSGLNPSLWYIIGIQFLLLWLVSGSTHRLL

SMILES | Ki [1] | Ki ([2]; Table 1) | Ki ([2]; Table 2 (dual compounds))
CNCCC(Oc1cccc(CNCc2ccccc2)c1)c1cccs1 (stereo not drawn) [Example 2, 3-(3-((Benzylamino)methyl)phenoxy)-N-methyl-3-(thiophen-2-yl)propan-1-amine] | 100 to 500 nM | 500 to 3000 nM | 500 to 3000 nM
CNCCC(Oc1cccc(CN(C)Cc2ccccc2)c1)c1cccs1 (stereo not drawn) [Example 6, 3-(3-((Benzyl(methyl)amino)methyl)phenoxy)-N-methyl-3-(thiophen-2-yl)propan-1-amine] | 500 to 1000 nM | 100 to 500 nM | 100 to 500 nM
CNCCC(Oc1cccc(C(=O)Nc2ccccc2)c1)c1ccccc1 (stereo not drawn) [Example 13, 3-(3-(Methylamino)-1-phenylpropoxy)-N-phenylbenzamide] | 500 to 1000 nM | ≥ 3000 nM | ≥ 3000 nM
CNCCC(Oc1cccc(C(=O)Nc2cccc(-c3nnc(C)o3)c2)c1)c1ccccc1 (stereo not drawn) [Example 14, N-(3-(5-methyl-1,3,4-oxadiazol-2-yl)phenyl)-3-(3-(methylamino)-1-phenylpropoxy)benzamide] | 100 to 500 nM | ≥ 3000 nM | ≥ 3000 nM
CNCCC(Oc1cccc(C(=O)Nc2cccnc2)c1)c1ccccc1 (stereo not drawn) [Example 15, 3-(3-(Methylamino)-1-phenylpropoxy)-N-(pyridin-3-yl)benzamide] | 100 to 500 nM | ≥ 3000 nM | ≥ 3000 nM
CNCCC(Oc1cccc(C(=O)NCc2ccccc2)c1)c1ccccc1 (stereo not drawn) [Example 17, N-benzyl-3-(3-(methylamino)-1-phenylpropoxy)benzamide] | 500 to 1000 nM | ≥ 3000 nM | ≥ 3000 nM
CNCCC(Oc1cccc(C(=O)NCc2ccccn2)c1)c1ccccc1 (stereo not drawn) [Example 18, 3-(3-(Methylamino)-1-phenylpropoxy)-N-(pyridin-2-ylmethyl)benzamide] | 500 to 1000 nM | ≥ 3000 nM | ≥ 3000 nM
CNCCNC(=O)c1cccc(OC(CCNC)c2ccccc2)c1 (stereo not drawn) [Example 20, 3-(3-(Methylamino)-1-phenylpropoxy)-N-(2-(methylamino)ethyl)benzamide] | 500 to 1000 nM | 500 to 3000 nM | 500 to 3000 nM
CNCCC(Oc1cccc(C(=O)NC2CCN(C)CC2)c1)c1ccccc1 (stereo not drawn) [Example 22, 3-(3-(Methylamino)-1-phenylpropoxy)-N-(1-methylpiperidin-4-yl)benzamide] | ≥ 1000 nM | 500 to 3000 nM | 500 to 3000 nM
CNCCC(Oc1cccc(N(C)C(=O)c2cccc(CN)c2)c1)c1ccccc1 (stereo not drawn) [Example 27, 3-(Aminomethyl)-N-methyl-N-(3-(3-(methylamino)-1-phenylpropoxy)phenyl)benzamide] | 500 to 1000 nM | ≥ 3000 nM | ≥ 3000 nM
CNCCC(Oc1cccc(N(C)C(=O)CCCN)c1)c1ccccc1 (stereo not drawn) [Example 28, 4-Amino-N-methyl-N-(3-(3-(methylamino)-1-phenylpropoxy)phenyl)butanamide] | 500 to 1000 nM | ≥ 3000 nM | ≥ 3000 nM
CCNc1ncc(C(=O)N(C)c2cccc(COC(CCNC)c3cccs3)c2)c(N2CCCC2)n1 (stereo not drawn) [Example 38, 2-(Ethylamino)-N-methyl-N-(3-((3-(methylamino)-1-(thiophen-2-yl)propoxy)methyl)phenyl)-4-(pyrrolidin-1-yl)pyrimidine-5-carboxamide] | 500 to 1000 nM | 500 to 3000 nM | 500 to 3000 nM
CNCCC(OCc1cccc(NC(=O)c2ccccc2)c1)c1ccccc1 (stereo not drawn) [Example 39, N-(3-((3-(methylamino)-1-phenylpropoxy)methyl)phenyl)benzamide] | 500 to 1000 nM | ≥ 3000 nM | ≥ 3000 nM
CNCCC(OCc1cccc(NC(=O)c2cnc(OC)nc2)c1)c1ccccc1 (stereo not drawn) [Example 41, 2-Methoxy-N-(3-((3-(methylamino)-1-phenylpropoxy)methyl)phenyl)pyrimidine-5-carboxamide] | 500 to 1000 nM | ≥ 3000 nM | ≥ 3000 nM
CNCCC(OCc1cccc(NC(=O)c2ccccn2)c1)c1ccccc1 (stereo not drawn) [Example 43, N-(3-((3-(methylamino)-1-phenylpropoxy)methyl)phenyl)picolinamide] | 500 to 1000 nM | ≥ 3000 nM | ≥ 3000 nM

Next, values leading:

Ki [1] | Ki ([2]; Table 1) | Ki ([2]; Table 2 (dual compounds)) | SMILES
500 to 1000 nM | ≥ 3000 nM | ≥ 3000 nM | CNCCC(OCc1cccc(NC(=O)c2ccccc2)c1)c1cccs1 (stereo not drawn) [Example 46, N-(3-((3-(methylamino)-1-(thiophen-2-yl)propoxy)methyl)phenyl)benzamide]
500 to 1000 nM | ≥ 3000 nM | ≥ 3000 nM | CNCCC(OCc1cccc(NC(=O)c2ccccc2F)c1)c1cccs1 (stereo not drawn) [Example 48, 2-Fluoro-N-(3-((3-(methylamino)-1-(thiophen-2-yl)propoxy)methyl)phenyl)benzamide]
500 to 1000 nM | ≥ 3000 nM | ≥ 3000 nM | CCNc1ncc(C(=O)Nc2cccc(OC(CCNC)c3ccccc3)c2)c(N2CCCC2)n1 (stereo not drawn) [Example 50, 2-(Ethylamino)-N-(3-(3-(methylamino)-1-phenylpropoxy)phenyl)-4-(pyrrolidin-1-yl)pyrimidine-5-carboxamide]
100 to 500 nM | ≥ 3000 nM | ≥ 3000 nM | CNCCC(OCc1cccc(Nc2ccccc2)c1)c1ccccc1 (stereo not drawn) [Example 58, 3-((3-(Methylamino)-1-phenylpropoxy)methyl)-N-phenylaniline]
– | ≥ 3000 nM | – | CNCCC(OCc1cccc(N(C(C)=O)c2ccccc2)c1)c1ccccc1 (stereo not drawn) [Example 61, N-(3-((3-(methylamino)-1-phenylpropoxy)methyl)phenyl)-N-phenylacetamide]
– | ≥ 3000 nM | – | CNCCC(Oc1cccc(N(C)C(C)=O)c1)c1cccs1 (stereo not drawn) [Example 62, N-methyl-N-(3-(3-(methylamino)-1-(thiophen-2-yl)propoxy)phenyl)acetamide]
– | ≥ 3000 nM | – | CNCCC(Oc1cccc(N(C)C(=O)c2ccccc2)c1)c1cccs1 (stereo not drawn) [Example 63, N-methyl-N-(3-(3-(methylamino)-1-(thiophen-2-yl)propoxy)phenyl)benzamide]
– | ≥ 3000 nM | – | CCCC(=O)N(C)c1cccc(OC(CCNC)c2cccs2)c1 (stereo not drawn) [Example 64, N-methyl-N-(3-(3-(methylamino)-1-(thiophen-2-yl)propoxy)phenyl)butyramide]
– | ≥ 3000 nM | – | CNCCC(Oc1cccc(N(C)C(=O)c2cccnc2)c1)c1cccs1 (stereo not drawn) [Example 65, N-methyl-N-(3-(3-(methylamino)-1-(thiophen-2-yl)propoxy)phenyl)nicotinamide]
– | 500 to 3000 nM | – | CNCCC(Oc1cccc(C(=O)Nc2ccccc2)c1)c1cccs1 (stereo not drawn) [Example 66, 3-(3-(Methylamino)-1-(thiophen-2-yl)propoxy)-N-phenylbenzamide]
– | ≥ 3000 nM | – | CNCCC(Oc1cccc(C(=O)N(C)c2ccccc2)c1)c1cccs1 (stereo not drawn) [Example 67, N-methyl-3-(3-(methylamino)-1-(thiophen-2-yl)propoxy)-N-phenylbenzamide]
– | ≥ 3000 nM | – | CNCCC(Oc1cccc(C(=O)N(C)c2cccnc2)c1)c1ccccc1 (stereo not drawn) [Example 68, N-methyl-3-(3-(methylamino)-1-phenylpropoxy)-N-(pyridin-3-yl)benzamide]
– | ≥ 3000 nM | – | CNCCC(Oc1cccc(C(=O)N(C)c2ccccc2)c1)c1ccccc1 (stereo not drawn) [Example 69, N-methyl-3-(3-(methylamino)-1-phenylpropoxy)-N-phenylbenzamide]
100 to 500 nM | ≥ 3000 nM | ≥ 3000 nM | CNCCC(Oc1ccc(CN(C)Cc2ccccc2)c(F)c1)c1cccs1 (stereo not drawn) [Example 70, 3-(4-((Benzyl(methyl)amino)methyl)-3-fluorophenoxy)-N-methyl-3-(thiophen-2-yl)propan-1-amine]
< 100 nM | ≥ 3000 nM | ≥ 3000 nM | CNCCC(Oc1ccc(CNCc2ccccc2)c(F)c1)c1cccs1 (stereo not drawn) [Example 71, 3-(4-((Benzylamino)methyl)-3-fluorophenoxy)-N-methyl-3-(thiophen-2-yl)propan-1-amine]
